Measured values from PubChem BioAssay AID743118 (The Scripps Research Institute Molecular Screening Center, 2013).

Experiments:
[1] = biological target: Acyl-protein thioesterase 1 (Homo sapiens) (UniProt O75608); experiment: LYPLA1 and LYPLA2 inhibitor potency in vitro, late-stage follow-up, cell lysate, HeLa soluble proteome, fluorescence gel (AID 743118); details: gel-based ABPP FP-Rh fluorescence, LYPLA1
[2] = biological target: Acyl-protein thioesterase 2 (Homo sapiens) (UniProt O95372); experiment: as above; details: gel-based ABPP FP-Rh fluorescence, LYPLA2
Sequence of Acyl-protein thioesterase 2 (Homo sapiens) (O95372 whole entry, looked up): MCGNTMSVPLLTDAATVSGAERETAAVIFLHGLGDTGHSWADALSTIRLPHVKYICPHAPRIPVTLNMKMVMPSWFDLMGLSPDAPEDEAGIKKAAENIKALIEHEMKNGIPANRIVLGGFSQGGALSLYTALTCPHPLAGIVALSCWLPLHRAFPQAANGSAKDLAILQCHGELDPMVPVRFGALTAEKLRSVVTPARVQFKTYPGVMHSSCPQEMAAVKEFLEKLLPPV

Sequence of Acyl-protein thioesterase 1 (Homo sapiens) (O75608 whole entry, looked up): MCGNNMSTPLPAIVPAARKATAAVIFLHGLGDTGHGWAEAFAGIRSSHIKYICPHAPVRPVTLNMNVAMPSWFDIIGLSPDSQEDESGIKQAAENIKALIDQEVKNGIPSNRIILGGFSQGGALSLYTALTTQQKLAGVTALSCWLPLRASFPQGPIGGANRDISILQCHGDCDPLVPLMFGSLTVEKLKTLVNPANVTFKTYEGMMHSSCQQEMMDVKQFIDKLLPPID

IC50 [1] [nM]	IC50 [2] [nM]	Structure (SMILES)
92	217	CC(C)(C)CC(=O)N1CCN2C(=O)N(OC(=O)N3CCC(CCc4ccc(Cl)cc4)CC3)C(=O)C2C1 (stereo not given)
306	726	O=C(ON1C(=O)C2CN(C(=O)c3ccc(Br)cc3)CCN2C1=O)N1CCC(CCc2ccc(Cl)cc2)CC1 (stereo not given)
154	258	O=C(ON1C(=O)C2CN(C(=O)N3CCCCC3)CCN2C1=O)N1CCC(CCc2ccc(Cl)cc2)CC1 (stereo not given)
225	384	O=C(ON1C(=O)C2CN(C(=O)N3CCCC3)CCN2C1=O)N1CCC(CCc2ccc(Cl)cc2)CC1 (stereo not given)
122	245	O=C(ON1C(=O)C2CN(C(=O)N3CCOCC3)CCN2C1=O)N1CCC(CCc2ccc(Cl)cc2)CC1 (stereo not given)
